Values quoted from earlier work, collected in patent US5665760A, “Lyophilized thioxanthenone antitumor agents” (priority 1995, dated 1997).

Details: excipient alone; cited from earlier work

For `OC[C@H]1O[C@@](CO)(O[C@H]2O[C@H](CO)[C@@H](O)[C@H](O)[C@H]2O)[C@@H](O)[C@@H]1O` [sucrose], the “glass transition temperature of excipient” value is given as -32 °C.
